Measured values: paper PMC3388095, “Fluorophore Labeled Kinase Detects Ligands That Bind within the MAPK Insert of p38α Kinase” (PLoS ONE, 2012)

Experiments:
Assay in all cases: Kinase selectivity profile, 33P-ATP filter-binding assay
Format in all cases: biochemical
[1] = molecular target: CAMKKβ (Homo sapiens, UniProt Q96RR4)
Summary of the method: (§1)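 95-kinase panel; compound 10 µM; 33P-ATP filter-binding readout; data = % residual kinase activity.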

[2] = molecular target: EPH A2 (Homo sapiens, UniProt P29317)
Summary of the method: as §1

[3] = molecular target: ERK1 (Homo sapiens, UniProt P27361)
Sequence of ERK1 (P27361 whole entry): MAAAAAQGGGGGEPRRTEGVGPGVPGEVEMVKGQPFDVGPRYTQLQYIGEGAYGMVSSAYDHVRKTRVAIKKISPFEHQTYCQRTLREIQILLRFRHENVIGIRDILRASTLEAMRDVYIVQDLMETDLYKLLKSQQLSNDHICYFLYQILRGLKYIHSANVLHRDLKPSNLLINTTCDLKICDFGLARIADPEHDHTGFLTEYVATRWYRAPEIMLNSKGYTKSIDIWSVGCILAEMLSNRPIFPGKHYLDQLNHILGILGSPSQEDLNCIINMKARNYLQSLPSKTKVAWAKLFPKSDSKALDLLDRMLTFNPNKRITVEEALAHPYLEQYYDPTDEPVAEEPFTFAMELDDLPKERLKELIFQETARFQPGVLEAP
Summary of the method: as §1

[4] = molecular target: ERK2 (Homo sapiens, UniProt P28482)
Sequence of ERK2 (P28482 whole entry): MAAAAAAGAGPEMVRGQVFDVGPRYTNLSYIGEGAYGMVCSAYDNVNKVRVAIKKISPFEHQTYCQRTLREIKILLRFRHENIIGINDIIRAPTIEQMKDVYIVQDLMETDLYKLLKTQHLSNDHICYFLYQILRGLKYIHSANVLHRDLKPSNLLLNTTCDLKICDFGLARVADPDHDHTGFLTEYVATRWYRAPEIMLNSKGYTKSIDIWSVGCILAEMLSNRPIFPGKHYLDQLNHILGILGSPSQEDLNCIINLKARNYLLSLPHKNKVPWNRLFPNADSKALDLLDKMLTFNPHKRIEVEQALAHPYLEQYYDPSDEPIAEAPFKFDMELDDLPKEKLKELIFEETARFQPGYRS
Summary of the method: as §1

[5] = molecular target: IKKβ (Homo sapiens, UniProt O14920)
Sequence of IKKβ (O14920 whole entry): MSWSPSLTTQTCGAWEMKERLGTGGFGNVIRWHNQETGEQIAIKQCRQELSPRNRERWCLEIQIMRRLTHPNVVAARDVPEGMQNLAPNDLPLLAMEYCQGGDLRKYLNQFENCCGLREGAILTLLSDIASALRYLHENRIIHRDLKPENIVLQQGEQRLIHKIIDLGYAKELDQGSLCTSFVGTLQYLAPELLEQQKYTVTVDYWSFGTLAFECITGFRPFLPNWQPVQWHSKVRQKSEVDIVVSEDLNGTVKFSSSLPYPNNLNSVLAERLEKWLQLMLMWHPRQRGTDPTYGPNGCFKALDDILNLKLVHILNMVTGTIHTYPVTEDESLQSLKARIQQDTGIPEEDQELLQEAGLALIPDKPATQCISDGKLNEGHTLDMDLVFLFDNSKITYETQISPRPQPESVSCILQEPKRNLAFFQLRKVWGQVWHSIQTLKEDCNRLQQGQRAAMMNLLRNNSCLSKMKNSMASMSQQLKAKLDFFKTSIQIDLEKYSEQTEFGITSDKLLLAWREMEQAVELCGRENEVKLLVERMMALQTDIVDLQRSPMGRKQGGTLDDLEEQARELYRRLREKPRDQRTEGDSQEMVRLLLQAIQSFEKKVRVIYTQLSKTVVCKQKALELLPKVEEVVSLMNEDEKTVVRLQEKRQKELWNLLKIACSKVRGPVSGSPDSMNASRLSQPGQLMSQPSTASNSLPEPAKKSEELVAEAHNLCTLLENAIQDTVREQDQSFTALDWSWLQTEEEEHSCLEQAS
Summary of the method: as §1

[6] = molecular target: MLK1 (Homo sapiens, UniProt P80192)
Sequence of MLK1 (P80192 whole entry): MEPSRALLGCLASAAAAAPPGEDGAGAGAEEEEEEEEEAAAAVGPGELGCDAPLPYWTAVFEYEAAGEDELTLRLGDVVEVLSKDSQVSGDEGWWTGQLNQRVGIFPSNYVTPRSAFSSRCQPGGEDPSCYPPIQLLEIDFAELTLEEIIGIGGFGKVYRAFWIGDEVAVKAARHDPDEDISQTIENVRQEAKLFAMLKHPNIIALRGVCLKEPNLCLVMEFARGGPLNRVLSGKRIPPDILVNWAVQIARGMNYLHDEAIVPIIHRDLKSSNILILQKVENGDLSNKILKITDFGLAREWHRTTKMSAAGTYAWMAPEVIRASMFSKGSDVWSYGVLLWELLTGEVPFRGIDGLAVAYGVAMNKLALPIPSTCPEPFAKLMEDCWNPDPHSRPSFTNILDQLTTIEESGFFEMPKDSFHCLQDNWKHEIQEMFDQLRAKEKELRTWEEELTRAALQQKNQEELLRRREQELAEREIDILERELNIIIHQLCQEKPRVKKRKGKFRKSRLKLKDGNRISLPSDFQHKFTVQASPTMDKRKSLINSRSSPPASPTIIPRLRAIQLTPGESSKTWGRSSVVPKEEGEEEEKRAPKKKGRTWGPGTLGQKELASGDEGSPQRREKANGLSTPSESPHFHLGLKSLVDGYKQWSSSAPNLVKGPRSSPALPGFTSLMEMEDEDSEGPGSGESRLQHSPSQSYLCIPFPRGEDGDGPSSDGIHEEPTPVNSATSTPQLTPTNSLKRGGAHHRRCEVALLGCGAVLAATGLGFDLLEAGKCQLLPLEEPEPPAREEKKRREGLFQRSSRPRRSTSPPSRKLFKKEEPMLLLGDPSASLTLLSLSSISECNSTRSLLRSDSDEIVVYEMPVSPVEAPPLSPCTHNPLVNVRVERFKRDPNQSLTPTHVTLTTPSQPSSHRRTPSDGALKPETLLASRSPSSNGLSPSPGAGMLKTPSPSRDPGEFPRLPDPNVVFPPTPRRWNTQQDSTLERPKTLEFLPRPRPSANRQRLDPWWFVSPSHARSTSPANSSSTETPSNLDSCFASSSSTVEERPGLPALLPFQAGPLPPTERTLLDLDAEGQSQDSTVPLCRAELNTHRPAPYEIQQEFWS
Summary of the method: as §1

[7] = molecular target: NEK2α (Homo sapiens, UniProt P51955)
Sequence of NEK2α (P51955 whole entry): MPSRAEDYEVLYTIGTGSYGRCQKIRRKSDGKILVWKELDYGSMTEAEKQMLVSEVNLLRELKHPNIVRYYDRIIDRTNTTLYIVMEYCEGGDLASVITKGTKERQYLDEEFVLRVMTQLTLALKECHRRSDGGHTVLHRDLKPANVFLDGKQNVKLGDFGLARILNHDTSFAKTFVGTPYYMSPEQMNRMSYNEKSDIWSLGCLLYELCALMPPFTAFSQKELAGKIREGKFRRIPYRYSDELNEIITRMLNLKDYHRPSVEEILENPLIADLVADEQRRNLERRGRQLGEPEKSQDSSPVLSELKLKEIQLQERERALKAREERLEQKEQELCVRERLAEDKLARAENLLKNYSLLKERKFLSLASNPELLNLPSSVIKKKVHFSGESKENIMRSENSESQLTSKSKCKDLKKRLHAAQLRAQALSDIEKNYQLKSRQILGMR
Summary of the method: as §1

[8] = molecular target: NEK6 (Homo sapiens, UniProt Q9HC98)
Sequence of NEK6 (Q9HC98 whole entry): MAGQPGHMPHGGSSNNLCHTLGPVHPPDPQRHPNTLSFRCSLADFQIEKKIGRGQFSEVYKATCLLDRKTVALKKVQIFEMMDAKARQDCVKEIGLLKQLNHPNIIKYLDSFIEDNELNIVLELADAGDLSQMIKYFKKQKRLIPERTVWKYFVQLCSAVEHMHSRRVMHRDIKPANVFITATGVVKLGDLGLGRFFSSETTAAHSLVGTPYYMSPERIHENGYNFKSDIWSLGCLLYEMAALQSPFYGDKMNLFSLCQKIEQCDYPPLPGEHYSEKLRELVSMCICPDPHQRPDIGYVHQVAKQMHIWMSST
Summary of the method: as §1

[9] = molecular target: NUAK1 (Homo sapiens, UniProt O60285)
Summary of the method: as §1

[10] = molecular target: PIM3 (Homo sapiens, UniProt Q86V86)
Summary of the method: as §1

[11] = molecular target: PKA (Homo sapiens, UniProt P17612)
Summary of the method: as §1

[12] = molecular target: PLK1 (Homo sapiens, UniProt P53350)
Summary of the method: as §1

[13] = molecular target: RSK2 (Homo sapiens, UniProt P51812)
Sequence of RSK2 (P51812 whole entry): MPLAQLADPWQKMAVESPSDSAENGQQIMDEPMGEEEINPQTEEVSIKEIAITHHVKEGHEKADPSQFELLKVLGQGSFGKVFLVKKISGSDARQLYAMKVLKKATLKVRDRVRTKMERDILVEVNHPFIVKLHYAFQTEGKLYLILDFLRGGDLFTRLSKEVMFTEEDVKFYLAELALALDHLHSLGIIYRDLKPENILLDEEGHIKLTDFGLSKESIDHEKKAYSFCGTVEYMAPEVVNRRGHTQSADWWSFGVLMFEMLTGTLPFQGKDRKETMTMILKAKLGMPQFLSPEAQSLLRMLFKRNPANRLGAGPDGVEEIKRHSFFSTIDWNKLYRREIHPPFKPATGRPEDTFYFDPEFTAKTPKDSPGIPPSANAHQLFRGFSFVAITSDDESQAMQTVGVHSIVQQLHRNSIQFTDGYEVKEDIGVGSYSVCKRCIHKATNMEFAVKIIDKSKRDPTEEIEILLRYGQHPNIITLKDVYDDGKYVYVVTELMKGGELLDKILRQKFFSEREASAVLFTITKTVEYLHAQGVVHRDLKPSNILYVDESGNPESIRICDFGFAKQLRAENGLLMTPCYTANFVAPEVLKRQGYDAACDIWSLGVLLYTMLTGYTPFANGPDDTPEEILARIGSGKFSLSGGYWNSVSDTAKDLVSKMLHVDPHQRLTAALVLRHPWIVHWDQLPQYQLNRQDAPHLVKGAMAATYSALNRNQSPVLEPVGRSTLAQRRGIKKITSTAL
Summary of the method: as §1

Sequence of CAMKKβ (Q96RR4 whole entry): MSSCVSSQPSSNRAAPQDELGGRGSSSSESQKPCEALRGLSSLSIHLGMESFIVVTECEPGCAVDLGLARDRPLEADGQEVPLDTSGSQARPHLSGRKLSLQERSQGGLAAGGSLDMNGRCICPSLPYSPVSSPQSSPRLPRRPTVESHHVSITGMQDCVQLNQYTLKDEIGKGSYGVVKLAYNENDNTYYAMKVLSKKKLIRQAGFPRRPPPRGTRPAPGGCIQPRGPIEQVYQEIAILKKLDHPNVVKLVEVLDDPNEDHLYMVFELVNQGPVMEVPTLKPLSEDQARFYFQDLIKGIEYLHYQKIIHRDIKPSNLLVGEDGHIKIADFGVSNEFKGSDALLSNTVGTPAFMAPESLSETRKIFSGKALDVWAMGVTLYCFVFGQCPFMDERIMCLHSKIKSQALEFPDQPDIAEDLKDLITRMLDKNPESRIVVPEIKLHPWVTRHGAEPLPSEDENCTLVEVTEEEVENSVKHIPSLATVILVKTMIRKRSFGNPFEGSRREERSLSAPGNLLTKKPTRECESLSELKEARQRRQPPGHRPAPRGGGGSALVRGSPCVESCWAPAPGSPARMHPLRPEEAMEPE

SMILES: Nc1ccc2c(NC3CC3)nc(-c3ccccc3)nc2c1 [1b, N^4-Cyclopropyl-2-phenyl-4,7-quinazolinediamine]
- remaining activity at 10 µM [1]: 95%
- remaining activity at 10 µM [2]: 85%
- remaining activity at 10 µM [3]: 99%
- remaining activity at 10 µM [4]: 98%
- remaining activity at 10 µM [5]: 97%
- remaining activity at 10 µM [6]: 92%
- remaining activity at 10 µM [7]: 119%
- remaining activity at 10 µM [8]: 105%
- remaining activity at 10 µM [9]: 90%
- remaining activity at 10 µM [10]: 77%
- remaining activity at 10 µM [11]: 104%
- remaining activity at 10 µM [12]: 87%
- remaining activity at 10 µM [13]: 98%
